Measurements from patent US9120812B2, “Pyrimidooxazocine derivatives as mTOR-inhibitors” (SANOFI, priority 2012, dated 2015).
Where two headings read alike, the source gives them in different places.

Key:
[1] = tested on: U87MG tumour cells; experiment: Test of in vitro proliferation of U87MG tumour cells; assay type: cell-based; settings: Homo sapiens, U-87 MG, 72 h
Experimental: Model 4: Test of in vitro Proliferation of U87MG Tumour Cells.
The cell growth is determined with the reagent CellTiter 96 AQueous One Solution Cell Proliferation Assay from Promega (Cat. No. G3581).

[2] = biological target: PI3Kα (p110α/p85α) (Homo sapiens (Human), UniProt P42336); experiment: PI3Kα enzymatic test by measuring the consumption of ATP; assay type: biochemical
PI3Kα (p110α/p85α), sequence (P42336 whole entry): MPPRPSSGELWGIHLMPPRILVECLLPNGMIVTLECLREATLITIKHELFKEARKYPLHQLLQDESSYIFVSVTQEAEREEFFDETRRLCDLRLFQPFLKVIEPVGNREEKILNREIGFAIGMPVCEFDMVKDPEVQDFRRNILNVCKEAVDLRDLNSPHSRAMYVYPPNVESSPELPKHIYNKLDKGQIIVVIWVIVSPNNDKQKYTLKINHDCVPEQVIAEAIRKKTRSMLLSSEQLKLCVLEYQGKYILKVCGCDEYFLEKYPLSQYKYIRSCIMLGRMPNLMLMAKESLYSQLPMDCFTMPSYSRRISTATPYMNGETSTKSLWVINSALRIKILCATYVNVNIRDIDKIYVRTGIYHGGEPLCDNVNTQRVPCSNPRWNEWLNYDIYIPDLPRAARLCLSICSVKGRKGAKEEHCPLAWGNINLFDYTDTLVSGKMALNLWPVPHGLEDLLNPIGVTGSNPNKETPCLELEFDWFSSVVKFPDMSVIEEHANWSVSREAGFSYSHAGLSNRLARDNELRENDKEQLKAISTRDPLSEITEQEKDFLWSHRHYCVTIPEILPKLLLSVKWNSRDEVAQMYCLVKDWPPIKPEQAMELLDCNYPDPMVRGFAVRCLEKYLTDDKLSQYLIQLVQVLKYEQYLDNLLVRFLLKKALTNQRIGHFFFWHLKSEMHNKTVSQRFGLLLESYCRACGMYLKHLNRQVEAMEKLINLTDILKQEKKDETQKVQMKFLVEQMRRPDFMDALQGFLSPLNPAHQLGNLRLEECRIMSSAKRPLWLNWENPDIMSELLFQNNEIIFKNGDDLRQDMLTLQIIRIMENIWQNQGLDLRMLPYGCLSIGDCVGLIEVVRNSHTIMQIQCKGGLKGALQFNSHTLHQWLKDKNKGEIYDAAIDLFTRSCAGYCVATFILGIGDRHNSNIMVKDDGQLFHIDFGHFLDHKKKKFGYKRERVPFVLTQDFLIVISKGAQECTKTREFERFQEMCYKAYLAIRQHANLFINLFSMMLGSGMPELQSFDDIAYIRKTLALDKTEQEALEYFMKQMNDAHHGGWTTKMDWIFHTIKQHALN
PI3Kα (p110α/p85α), sequence (P27986 whole entry partner): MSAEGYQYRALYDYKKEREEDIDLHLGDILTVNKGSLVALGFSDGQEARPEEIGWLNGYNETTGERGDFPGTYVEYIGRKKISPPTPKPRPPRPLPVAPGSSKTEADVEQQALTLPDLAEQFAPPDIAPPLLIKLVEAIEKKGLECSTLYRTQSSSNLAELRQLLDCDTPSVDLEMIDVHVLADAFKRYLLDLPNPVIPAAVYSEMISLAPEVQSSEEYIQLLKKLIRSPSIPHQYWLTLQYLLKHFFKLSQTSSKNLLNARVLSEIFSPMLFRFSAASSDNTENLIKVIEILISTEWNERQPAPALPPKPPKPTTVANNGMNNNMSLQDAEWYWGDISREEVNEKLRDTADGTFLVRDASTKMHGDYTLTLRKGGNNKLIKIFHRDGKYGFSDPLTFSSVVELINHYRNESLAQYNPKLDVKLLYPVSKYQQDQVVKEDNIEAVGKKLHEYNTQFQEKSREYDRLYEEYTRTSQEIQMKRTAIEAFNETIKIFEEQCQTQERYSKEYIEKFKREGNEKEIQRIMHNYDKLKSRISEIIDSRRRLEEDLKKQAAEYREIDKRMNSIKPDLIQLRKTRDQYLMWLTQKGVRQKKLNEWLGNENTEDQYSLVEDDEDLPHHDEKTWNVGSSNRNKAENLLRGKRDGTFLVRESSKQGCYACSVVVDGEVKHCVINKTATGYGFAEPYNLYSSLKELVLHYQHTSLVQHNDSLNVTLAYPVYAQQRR
Procedure, shortened: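 ATP consumption read out by KinaseGlo luminescence after a 90 min reaction of 1.7 μg/ml PI3Kα (p110α/p85α) with 2 μM ATP and 50 μM PIP2, buffered at pH 7.5 (Tris, 10 mM MgCl2, 1 mM EGTA, 0.03% Chaps, 1 mM DTT). Threefold dilution series over ≥10 000-fold range yield IC50.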

[3] = biological target: mTOR (human recombinant aa mTOR 1360-2549) (Homo sapiens (Human), UniProt P42345); experiment: mTOR enzymatic test by TR-FRET (phosphorylation of GFP-4EBP1); assay type: biochemical
mTOR (human recombinant aa mTOR 1360-2549), sequence (P42345 1360-2549): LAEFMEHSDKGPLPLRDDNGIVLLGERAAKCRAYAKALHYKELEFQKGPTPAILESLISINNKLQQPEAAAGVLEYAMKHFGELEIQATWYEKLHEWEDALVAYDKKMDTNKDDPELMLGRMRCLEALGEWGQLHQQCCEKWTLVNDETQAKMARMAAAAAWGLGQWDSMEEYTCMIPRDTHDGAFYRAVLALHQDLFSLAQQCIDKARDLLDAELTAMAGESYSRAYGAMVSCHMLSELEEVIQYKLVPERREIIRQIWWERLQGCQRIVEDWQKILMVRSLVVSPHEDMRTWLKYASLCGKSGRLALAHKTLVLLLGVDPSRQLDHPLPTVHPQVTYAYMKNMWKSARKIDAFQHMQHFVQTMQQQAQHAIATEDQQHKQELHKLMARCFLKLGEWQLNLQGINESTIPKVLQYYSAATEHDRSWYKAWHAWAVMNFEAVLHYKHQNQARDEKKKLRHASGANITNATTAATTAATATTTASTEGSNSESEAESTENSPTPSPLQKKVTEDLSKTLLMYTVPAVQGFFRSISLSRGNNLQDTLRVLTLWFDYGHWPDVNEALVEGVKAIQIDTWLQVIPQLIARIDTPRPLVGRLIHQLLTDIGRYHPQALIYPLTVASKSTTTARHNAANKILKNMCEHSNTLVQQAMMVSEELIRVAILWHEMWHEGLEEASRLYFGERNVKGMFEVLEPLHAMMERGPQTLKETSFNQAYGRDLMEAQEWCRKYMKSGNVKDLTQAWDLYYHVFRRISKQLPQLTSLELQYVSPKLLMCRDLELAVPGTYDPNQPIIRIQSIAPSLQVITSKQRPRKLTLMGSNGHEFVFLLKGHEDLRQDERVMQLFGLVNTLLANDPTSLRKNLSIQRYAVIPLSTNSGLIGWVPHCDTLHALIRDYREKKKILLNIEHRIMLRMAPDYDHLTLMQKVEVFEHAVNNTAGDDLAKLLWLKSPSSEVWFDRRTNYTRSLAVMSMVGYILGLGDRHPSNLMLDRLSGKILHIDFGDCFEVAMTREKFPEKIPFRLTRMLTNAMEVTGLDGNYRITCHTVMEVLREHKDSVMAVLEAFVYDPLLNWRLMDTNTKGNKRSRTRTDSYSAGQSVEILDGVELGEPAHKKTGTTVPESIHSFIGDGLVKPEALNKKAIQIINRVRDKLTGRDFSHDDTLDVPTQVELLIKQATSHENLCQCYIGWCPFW
Procedure, shortened: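 After a 30 min room-temperature kinase reaction, EDTA (10 mM final) and Tb-labelled phospho-Thr46 antibody (2 nM final) were added and incubated 60 min. Energy transfer from Tb to phosphorylated GFP-4EBP1 was read at 340 nm excitation, emissions 490/520 nm. Values derive from the 520/490 fluorescence ratio.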

[4] = tested on: Akt-pS473 in U87MG cells; settings: Homo sapiens, U-87 MG
Experimental: Model 3: Cellular Test of Phosphorylation of the Epitope S473 of the Akt Protein on the U87MG Line Via an ELISA Test
An electrochemiluminescence signal is generated by a ruthenium-labelled anti-rabbit antibody.
After culturing for 16-20 hours (the cells are at 100% of confluence) at 37° C. under 5% CO2, 1 μl of the chemical compounds in 100% DMSO (1% DMSO final concentration on the cells) is added. The cells are incubated with the compounds for 3 hours at 37° C. under 5% CO2.
The free sites are blocked with 150 μl/well of a buffer of 50 mM Tris pH 7.5, 0.15 M NaCl, 0.02% Tween 20, 3% BSA with stirring at 450 rpm for 1 hour at room temperature, followed by a step of washing with 3×300 μl of a buffer of 50 mM Tris pH 7.5, 0.15 M NaCl, 0.02% Tween 20.
15 μl of cell lysate are mixed with 15 μl of a 50 mM buffer of Tris pH 7.5, 0.15 M NaCl, 0.02% Tween 20, 1% BSA in a precoated ELISA plate (see above), and incubated for 1 hour at room temperature with stirring, followed by a step of washing with 3×300 μl of a buffer of 50 mM Tris pH 7.5, 0.15 M NaCl, 0.02% Tween 20. The pS473 epitope of Akt is detected with a rabbit polyclonal antibody (Cell Signaling, SC9271), diluted 100-fold in 50 mM Tris pH 7.5, 0.15 M NaCl, 0.02% Tween 20, 1% BSA, 25 μl/well (incubation for 1 hour at room temperature with stirring at 450 rpm).
After washing (see above), revelation is performed with a ruthenium-labelled anti-rabbit antibody (MSD R32AB1), diluted 3000-fold in a 50 mM buffer of Tris pH 7.5, 0.15 M NaCl, 0.02% Tween 20, 1% BSA, 25 μl/well, followed by incubation for 1 hour at room temperature with stirring at 450 rpm, and the plates are covered with aluminium.
After a further washing step, the plates are emptied and 150 μl of MSD Read Buffer T diluted fourfold with water are added. The electrochemiluminescence is measured on the MSD Sector Imager 6000.

[5] = U87MG cells, 72 hours, read-out: U87 Cell Proliferation IC50
[6] = read-out: U87 Akt-pS473 % Inhibition or IC50, nM (IC50), U87MG cells

Structure (SMILES)	IC50 [1, 5] [nM]	PI3Ka IC50 [2] [nM]	IC50 [3] [nM]	IC50 [4, 6] [nM]	IC50 ([1]; read-out: U87 Cell Proliferation IC50, nM) [nM]	IC50 ([4]; read-out: U87 Akt-pS473 % Inhibition or IC50, nM (IC50)) [nM]
CCN1CC(C)(C)Oc2nc(N3CCOC[C@@H]3C)nc(-c3ccc(NC(=O)Nc4ccc(C)cn4)c(F)c3)c2C1=O [Example 164, 1-{4-[6-Ethyl-8,8-dimethyl-2-((S)-3-methylmorpholin-4-yl)-5-oxo-5,6,7,8-tetrahydro-9-oxa-1,3,6-triazabenzocyclohepten-4-yl]-2-fluorophenyl}-3-(5-methylpyridin-2-yl)urea]	872	3800	85	227		
CCN1CC(C)(C)Oc2nc(N3CCOC[C@@H]3C)nc(-c3ccc(NC(=O)Nc4ccc(C)cn4)cc3)c2C1=O [Example 168, 1-{4-[6-Ethyl-8,8-dimethyl-2-((S)-3-methylmorpholin-4-yl)-5-oxo-5,6,7,8-tetrahydro-9-oxa-1,3,6-triazabenzocyclohepten-4-yl]phenyl}-3-(5-methylpyridin-2-yl)urea]	231	1385	18	48		
CCN1CC(C)(C)Oc2nc(N3CCOC[C@@H]3C)nc(-c3ccc(NC(=O)Oc4cccc(OC)c4)cc3)c2C1=O [Example 193, {4-[6-Ethyl-8,8-dimethyl-2-((S)-3-methylmorpholin-4-yl)-5-oxo-5,6,7,8-tetrahydro-9-oxa-1,3,6-triazabenzocyclohepten-4-yl]phenyl}carbamic acid 3-methoxyphenyl ester]		9440	970		4660	> 1000
CCN1CC(C)(C)Oc2nc(N3CC4CCC(C3)O4)nc(-c3ccc(NC(=O)Nc4cncc(OC)n4)c(F)c3)c2C1=O [Example 139, 1-{4-[6-Ethyl-8,8-dimethyl-2-(8-oxa-3-azabicyclo[3.2.1]oct-3-yl)-5-oxo-5,6,7,8-tetrahydro-9-oxa-1,3,6-triazabenzocyclohepten-4-yl]-2-fluorophenyl}-3-(6-methoxypyrazin-2-yl)urea]	3010	>10000	251	721		
CCN1CC(C)(C)Oc2nc(N3CC4CCC(C3)O4)nc(-c3ccc(NC(=O)Nc4ccc(C(=O)N5CCC(N(C)C)CC5)cc4)cc3)c2C1=O [Example 177, 1-[4-(4-Dimethylaminopiperidine-1-carbonyl)phenyl]-3-{4-[6-ethyl-8,8-dimethyl-2-(8-oxa-3-azabicyclo[3.2.1]oct-3-yl)-5-oxo-5,6,7,8-tetrahydro-9-oxa-1,3,6-triazabenzocyclohepten-4-yl]phenyl}urea]	57	87	84	435		
COCCN1CC(C)(C)Oc2nc(N3CC4CCC(C3)O4)nc(-c3ccc(NC(=O)Nc4ccon4)c(F)c3)c2C1=O [Example 179, 1-{2-Fluoro-4-[6-(2-methoxyethyl)-8,8-dimethyl-2-(8-oxa-3-azabicyclo[3.2.1]oct-3-yl)-5-oxo-5,6,7,8-tetrahydro-9-oxa-1,3,6-triazabenzocyclohepten-4-yl]phenyl}-3-isoxazol-3-ylurea]	1330	>10000	58	331		
CCN1CC(C)(C)Oc2nc(N3CC4CCC(C3)O4)nc(-c3ccc(NC(=O)Nc4ccc(N5CCOCC5)cn4)cc3)c2C1=O [Example 250, 1-{4-[6-Ethyl-8,8-dimethyl-2-(8-oxa-3-azabicyclo[3.2.1]oct-3-yl)-5-oxo-5,6,7,8-tetrahydro-9-oxa-1,3,6-triazabenzocyclohepten-4-yl]phenyl}-3-(5-morpholin-4-ylpyridin-2-yl)urea]	100	>10000	36	38		
CCN1CC(C)(C)Oc2nc(N3CC4CCC(C3)O4)nc(-c3ccc(NC(=O)Nc4ccc(N5CCOC[C@H]5C)nc4)c(F)c3)c2C1=O [Example 30, 1-{4-[6-ethyl-8,8-dimethyl-2-(8-oxa-3-azabicyclo[3.2.1]oct-3-yl)-5-oxo-5,6,7,8-tetrahydro-9-oxa-1,3,6-triazabenzocyclohepten-4-yl]-2-fluorophenyl}-3-[6-((R)-3-methylmorpholin-4-yl)pyridin-3-yl]urea]	46	>10000	21	15		
CN1CC(C)(C)Oc2nc(N3C4CCC3COC4)nc(-c3ccc(NC(=O)Nc4ccccn4)cc3)c2C1=O [Example 41, 1-Pyridin-2-yl-3-{4-[6,8,8-trimethyl-2-(3-oxa-8-azabicyclo[3.2.1]oct-8-yl)-5-oxo-5,6,7,8-tetrahydro-9-oxa-1,3,6-triazabenzocyclohepten-4-yl]phenyl}urea]	122	>10000	35	31		
CC[C@H]1COCCN1c1ccc(NC(=O)Nc2ccc(-c3nc(N4C5CCC4COC5)nc4c3C(=O)N(CC)CC(C)(C)O4)cc2F)cn1 [Example 249, 1-{4-[6-Ethyl-8,8-dimethyl-2-(3-oxa-8-azabicyclo[3.2.1]oct-8-yl)-5-oxo-5,6,7,8-tetrahydro-9-oxa-1,3,6-triazabenzocyclohepten-4-yl]-2-fluorophenyl}-3-[6-((S)-3-ethylmorpholin-4-yl)pyridin-3-yl]urea]	29	>10000	365	27		
COCCN1CC(C)(C)Oc2nc(N3CC4CCC(C3)O4)nc(-c3ccc(NC(=O)Nc4ccon4)cc3)c2C1=O [Example 172, 1-Isoxazol-3-yl-3-{4-[6-(2-methoxyethyl)-8,8-dimethyl-2-(8-oxa-3-azabicyclo[3.2.1]oct-3-yl)-5-oxo-5,6,7,8-tetrahydro-9-oxa-1,3,6-triazabenzocyclohepten-4-yl]phenyl}urea]	198	<10000	20	98		
CCN1CC(C)(C)Oc2nc(N3CC4CCC(C3)O4)nc(-c3ccc(NC(=O)Nc4ccon4)c(C)c3)c2C1=O [Example 165, 1-{4-[6-Ethyl-8,8-dimethyl-2-(8-oxa-3-azabicyclo[3.2.1]oct-3-yl)-5-oxo-5,6,7,8-tetrahydro-9-oxa-1,3,6-triazabenzocyclohepten-4-yl]-2-methylphenyl}-3-isoxazol-3-ylurea]	4200	>10000	180	1530		
CCN1CC(C)(C)Oc2nc(N3CC4CCC(C3)O4)nc(-c3ccc(NC(=O)Nc4ccc(C)nc4)c(F)c3)c2C1=O [Example 185, 1-{4-[6-Ethyl-8,8-dimethyl-2-(8-oxa-3-azabicyclo[3.2.1]oct-3-yl)-5-oxo-5,6,7,8-tetrahydro-9-oxa-1,3,6-triazabenzocyclohepten-4-yl]-2-fluorophenyl}-3-(6-methylpyridin-3-yl)urea]	73	5680	24	20		
CCNC(=O)Nc1ccc(-c2nc(N3CC4CCC(C3)O4)nc3c2C(=O)N(CC)CC(C)(C)O3)cc1F [Example 110, 1-Ethyl-3-{4-[6-ethyl-8,8-dimethyl-2-(8-oxa-3-azabicyclo[3.2.1]oct-3-yl)-5-oxo-5,6,7,8-tetrahydro-9-oxa-1,3,6-triazabenzocyclohepten-4-yl]-2-fluorophenyl}urea]	506	>10000	45	89		
CCN1CC(C)(C)Oc2nc(N3CC4CCC(C3)O4)nc(-c3ccc(NC(=O)Nc4ccccn4)c(F)c3)c2C1=O [Example 158, 1-{4-[6-Ethyl-8,8-dimethyl-2-(8-oxa-3-azabicyclo[3.2.1]oct-3-yl)-5-oxo-5,6,7,8-tetrahydro-9-oxa-1,3,6-triazabenzocyclohepten-4-yl]-2-fluorophenyl}-3-pyridin-2-ylurea]	1700	>10000	64	1600		
CN1CC(C)(C)Oc2nc(N3C4CCC3COC4)nc(-c3ccc(NC(=O)Nc4ccncc4)c(F)c3)c2C1=O [Example 82, 1-{2-Fluoro-4-[6,8,8-trimethyl-2-(3-oxa-8-azabicyclo[3.2.1]oct-8-yl)-5-oxo-5,6,7,8-tetrahydro-9-oxa-1,3,6-triazabenzocyclohepten-4-yl]phenyl}-3-pyridin-4-ylurea]	29	2240	21	13		
CCNC(=O)Nc1ccc(-c2nc(N3CCOC[C@@H]3C)nc3c2C(=O)N(CC)CC(C)(C)O3)cc1 [Example 98, 1-Ethyl-3-{4-[6-ethyl-8,8-dimethyl-2-((S)-3-methylmorpholin-4-yl)-5-oxo-5,6,7,8-tetrahydro-9-oxa-1,3,6-triazabenzocyclohepten-4-yl]phenyl}urea]	184	1138	26	20		
CCN1CC(C)(C)Oc2nc(N3CC4CCC(C3)O4)nc(-c3ccc(NC(=O)NCCCO)cc3)c2C1=O [Example 119, 1-{4-[6-Ethyl-8,8-dimethyl-2-(8-oxa-3-azabicyclo[3.2.1]oct-3-yl)-5-oxo-5,6,7,8-tetrahydro-9-oxa-1,3,6-triazabenzocyclohepten-4-yl]phenyl}-3-(3-hydroxypropyl)urea]	> 3000	>10000	104	1060		
